Test results: patent US11464821B2, “Composition for reducing cancer cachexia or weight loss caused by anticancer drug therapy or radiation therapy comprising ginseng extract having increased ginsenoside Rg3 and Rh2” (GREEN CROSS WELLBEING CORPORATION, priority 2013, dated 2022)
Like-named read-outs stand apart in the source and are kept apart here. Marks after values point to notes of the source that are not given here.

What was measured:
Format in all cases: in vivo, Balb/c-nu/nu mice
[1] = tested on: animal models xenografted with HT-29 colon cancer cell line; assay: Swimming test (forced motor activity), test example 1; settings: HT-29 xenografted mice, 100 mg/kg oral, every day for 4 weeks
Experimental: (§1) 6-wk-old Balb/c-nu/nu female mice weighing 20±2 g were obtained from Orient Inc., and housed in animal rooms under a temperature of 23±1° C., relative humidity of 55±15%, and 12-hour light/dark illumination cycle. […] After acclamation for 1 week, 100 μl of HT-29 cells (5×10^6 cells/mouse) were subcutaneously injected into the flank of the Balb/c nu/nu mouse, and the mice were observed by the naked eyes. The mice were randomized into groups when the tumor size reached 150 mm^3, and then drug administration was initiated. Voluntary motor activity (running wheel activity) and forced motor activity (swimming test) were measured after the administration of anticancer drug and drugs was completed, and the amount of glycogen synthesized in the muscle was assayed through an ELISA kit after the tissue taken from the femoral region on the final date of autopsy was homogenized. Running wheel activity (Running distance=meter/10 min)
A transparent temperature-constant water bath (500 mm×500 mm×400 mm), which maintained the designated temperature and water level, was filled with warm water (23±1° C.), and then the animals were subjected to forced swimming (FS). The swimming time immediately after total exhaustion was recorded. […]

[2] = tested on: animal models xenografted with HT-29 colon cancer cell line; assay: Glycogen synthesized in femoral muscle (ELISA kit) under radiation treatment, test example 3
Experimental: as §1
(§2) All the examples and comparative examples were diluted in phosphate buffered saline (PBS) according to the dosage, and compulsorily administered to the animals using needle for oral administration (Sonde). The dosage was diluted in PBS to 100 mg/kg of body weight, and the dosage was calculated such that 100 μl/20 g was administered depending on the weight measured on the day of administration. Test materials were administered at the same time once per day, at 10 AM, for 4 weeks, for the examples and comparative examples.
Evaluation was conducted in the same conditions as in test example 1, except that all the examples and comparative examples were compared in the conditions of radiation treatment. The radiation treatment was conducted at 10 Gy three times per week.

[3] = tested on: animal models xenografted with HT-29 colon cancer cell line; assay: Running wheel activity (voluntary motor activity), test example 1; settings: HT-29 xenografted mice, 100 mg/kg oral, every day for 4 weeks
Experimental: as §1
The voluntary motor activity was measured as the parameter of cancer-related fatigue (CRF) through running wheel activity. The number of wheels ran for a total of 10 min on 300Ø wheel was counted, and running distance was calculated. *Running distance=circumference (30 cm×3.14)×number of wheels/10 min […]

[4] = tested on: animal models xenografted with HT-29 colon cancer cell line
Experimental: as §1, §2
Evaluation was conducted in the same conditions as in test example 1, except that all the examples and comparative examples were compared in the conditions of treatment with an anticancer drug. The treatment with 5-FU as an anticancer drug was conducted at 30 mg/kg three times per week.

SMILES	Total swimming time ([1]; forced swimming to exhaustion, water 23±1° C.) [s]	Increase (%) in swimming time, compared with control ([1]; vs xenograft control) [%]	Mean Muscle Glycogen ([2]; HT-29 xenografted mice, with radio therapy 10 Gy 3 days per week, oral daily for 4 weeks, femoral muscle) [mg/g]	amount of glycogen synthesis compared with control group treated with radiation (in words) ([2]; combined with radiation treatment for 4 weeks)	Increase (%) in glycogen synthesis, compared with control ([2]; with radio therapy 10 Gy 3 days per week, oral daily for 4 weeks, vs radio therapy control) [%]	Running distance for 10 min (meter/10 min) [3]	Incerase (%) in running distance for 10 min, compared with control ([3]; vs xenograft control) [%]	Mean Muscle Glycogen ([4]; HT-29 xenografted mice, co-administered with 5-FU 30 mg/kg i.p. 3 days per week, 100 mg/kg oral daily for 4 weeks, femoral muscle) [mg/g]	Increase (%) in glycogen synthesis, compared with control ([4]; co-administered with 5-FU 30 mg/kg i.p. 3 days per week, 100 mg/kg oral daily for 4 weeks, vs 5-FU control) [%]	amount of glycogen synthesis compared with control group administered with the anticancer drug (in words) ([4]; co-administered with 5-FU for 4 weeks)	Mean Muscle Glycogen (mg/g), 5-FU control ([4]; mouse, in vivo) [mg/g]	reduction of amount of glycogen synthesis compared with the normal groups ([4]; mouse, in vivo) [%]
NC(=O)C[S+]([O-])C(c1ccccc1)c1ccccc1 (stereo not drawn) [Comparative example 12, Modafinil]	731.8 ± 60.1	63.5	3.9 ± 0.2	did not show any great change	7.9	80.1 ± 1.9** meter/10 min	52.6	4.3 ± 0.5	18.4	did not show any great change	–	–
O=c1[nH]cc(F)c(=O)[nH]1 [Example 5-FU, 5-fluorouracil]	–	–	–	–	–	–	–	–	–	–	3.6 ± 0.34	51.4
